Laboratory results as given in patent US20250011368A1, “DLL3 TARGETING PEPTIDES AND CONSTRUCTS THEREOF” (MARIANA ONCOLOGY INC., priority 2023, published 2025).
Like-named read-outs stand apart in the source and are kept apart here. Numbered stars: 1 amine (or outer) side, 2 acyl side, 3 side chain; on linkers, the order of the positions; unused ones are H or OH. Bridge positions count the residues as written; N and C are the ends. Square brackets hold non-standard residues; d marks the D form. Peptide text beside a SMILES is read from it. * marks the point of attachment. X11 = O=C(O)CN1CCN(CC(=O)O)CCN(CC(=O)NCCCC[C@@H](NC(=O)COCCOCCOCCOCCOCCOCCOCCOCCNC(=O)Cc2ccc(Br)cc2)C(=O)NCCOCCOCCOCCOCCOCCOCCOCCOCC(=O)*)CCN(CC(=O)O)CC1; DOTA = O=C(O)CN1CCN(CC(=O)O)CCN(CC(=O)*)CCN(CC(=O)O)CC1; Trp(5-F) = N[C@@H](Cc1c[nH]c2ccc(F)cc12)C(=O)O; Phe(2-CF3) = N[C@@H](Cc1ccccc1C(F)(F)F)C(=O)O; Trp(7-aza) = N[C@@H](Cc1c[nH]c2ncccc12)C(=O)O; Pro(trans-4-F) = O=C(O)[C@@H]1C[C@@H](F)CN1; 2Nal = N[C@@H](Cc1ccc2ccccc2c1)C(=O)O; pXylylene = c1cc(C[*:2])ccc1C[*:1]; Cba = N[C@@H](CC1CCC1)C(=O)O; Chg = N[C@H](C(=O)O)C1CCCCC1; Tle = CC(C)(C)[C@H](N)C(=O)O

Molecular target: T1, human DLL3 (Homo sapiens, UniProt Q9NYJ7)
T1 sequence (Q9NYJ7 27-618): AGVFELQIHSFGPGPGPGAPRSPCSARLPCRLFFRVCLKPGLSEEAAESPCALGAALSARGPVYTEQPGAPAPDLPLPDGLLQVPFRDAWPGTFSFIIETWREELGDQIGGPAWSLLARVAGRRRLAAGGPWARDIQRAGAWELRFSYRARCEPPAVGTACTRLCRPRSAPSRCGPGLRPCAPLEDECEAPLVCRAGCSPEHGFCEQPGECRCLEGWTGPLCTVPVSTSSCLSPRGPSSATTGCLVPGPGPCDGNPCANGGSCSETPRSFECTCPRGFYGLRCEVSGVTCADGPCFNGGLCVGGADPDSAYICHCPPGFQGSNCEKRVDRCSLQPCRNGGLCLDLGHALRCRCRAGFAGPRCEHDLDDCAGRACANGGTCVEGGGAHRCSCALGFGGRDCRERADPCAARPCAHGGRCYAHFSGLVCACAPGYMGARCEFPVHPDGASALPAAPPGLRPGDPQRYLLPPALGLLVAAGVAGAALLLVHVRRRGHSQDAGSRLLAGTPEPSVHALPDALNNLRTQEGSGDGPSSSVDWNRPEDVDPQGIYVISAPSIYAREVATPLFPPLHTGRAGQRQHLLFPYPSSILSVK
Experiment: Affinity determination by Surface Plasmon Resonance (SPR)
Assay type: binding
Method in brief: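 Kinetic and affinity constants were derived by fitting sensorgrams to a 1:1 binding model. Graded compound concentrations flowed at 100 μL/minute in 20 mM phosphate running buffer with 2% DMSO over streptavidin-immobilized biotinylated human DLL3, reference-subtracted.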

[1] = 25° C., biotinylated human DLL3 immobilized on streptavidin sensor chip, 1:1 binding model, read-out: SPR KD

SMILES	Kd [1] [nM]	Kd [nM]
CC(=O)N[C@@H](Cc1c[nH]c2ccc(F)cc12)C(=O)N[C@H](C(=O)N[C@@H](Cc1ccccc1C(F)(F)F)C(=O)N[C@H]1CSSC[C@@H](C(=O)N[C@@H](Cc2c[nH]c3ncccc23)C(=O)N2C[C@H](F)C[C@H]2C(=O)N[C@@H](CCCCNC(=O)CN2CCN(CC(=O)O)CCN(CC(=O)O)CCN(CC(=O)O)CC2)C(N)=O)NC(=O)[C@H](CC(=O)O)NC(=O)[C@H](Cc2cnc[nH]2)NC(=O)[C@H](Cc2ccc3ccccc3c2)NC(=O)[C@H](CC(N)=O)NC(=O)[C@H](CC(N)=O)NC1=O)[C@@H](C)O [compound 246, Ac-(5Fluoro-W)-T-(2CF3-F)-C(3)-N-N-(2Nal)-H-D-C(3)-(7Aza-W)-(trans4Fluoro-P)-[D-Lys(DOTA)]-NH2] (Ac-[Trp(5-F)]T[Phe(2-CF3)]CNN[2Nal]HDC[Trp(7-aza)][Pro(trans-4-F)]K(DOTA)-NH2; disulfide 4-10)	< 1	
CC[C@H](C)[C@H](NC(=O)[C@@H](NC(=O)[C@H](Cc1c[nH]c2ccccc12)NC(C)=O)[C@@H](C)O)C(=O)N[C@H]1CSSC[C@@H](C(=O)N[C@@H](Cc2c[nH]c3ccccc23)C(=O)N2CCC[C@H]2C(=O)N[C@H](CCCCNC(=O)COCCOCCOCCOCCOCCOCCOCCOCCNC(=O)[C@@H](CCCCNC(=O)CN2CCN(CC(=O)O)CCN(CC(=O)O)CCN(CC(=O)O)CC2)NC(=O)COCCOCCOCCOCCOCCOCCOCCOCCNC(=O)Cc2ccc(Br)cc2)C(N)=O)NC(=O)[C@H](CC(=O)O)NC(=O)[C@H](Cc2c[nH]cn2)NC(=O)[C@H](Cc2ccc3ccccc3c2)NC(=O)[C@H](CC(N)=O)NC(=O)[C@H](CC(N)=O)NC1=O [compound 251, Ac-W-T-I-C(3)-N-N-(2Nal)-H-D-C(3)-W-P-{D-Lys[PEG8-D-Lys(DOTA)-PEG8-COCH2Ph-4Br]}-NH2] (Ac-WTICNN[2Nal]HDCWP[dK](X11)-NH2; disulfide 4-10)		< 1
CC[C@H](C)[C@H](NC(=O)[C@@H](NC(=O)[C@H](Cc1c[nH]c2ccccc12)NC(C)=O)[C@@H](C)O)C(=O)N[C@H]1CSSC[C@@H](C(=O)N[C@@H](Cc2c[nH]c3ccccc23)C(=O)N2CCC[C@H]2C(=O)N[C@H](CCCCNC(=O)COCCOCCOCCOCCOCCOCCOCCOCCNC(=O)[C@@H](CCCCNC(=O)CN2CCN(CC(=O)O)CCN(CC(=O)O)CCN(CC(=O)O)CC2)NC(=O)CCOCCOCCOCCOCCOCCOCCOCCOCCOCCOCCOCCOCCOCCOCCOCCOCCOCCOCCOCCOCCOCCOCCOCCOCCNC(=O)Cc2ccc(Br)cc2)C(N)=O)NC(=O)[C@H](CC(=O)O)NC(=O)[C@H](Cc2c[nH]cn2)NC(=O)[C@H](Cc2ccc3ccccc3c2)NC(=O)[C@H](CC(N)=O)NC(=O)[C@H](CC(N)=O)NC1=O [compound 255, Ac-W-T-I-C(3)-N-N-(2Nal)-H-D-C(3)-W-P-{D-Lys[PEG8-D-Lys(DOTA)-PEG24-COCH2Ph-4Br]}-NH2]		1 to 10
CC[C@H](C)[C@H](NC(=O)[C@@H](NC(=O)[C@H](Cc1c[nH]c2ccccc12)NC(C)=O)[C@@H](C)O)C(=O)N[C@H]1CSCc2ccc(cc2)CSC[C@@H](C(=O)N[C@@H](Cc2c[nH]c3ccccc23)C(=O)N2CCC[C@H]2C(=O)N[C@H](CCCCNC(=O)CN2CCN(CC(=O)O)CCN(CC(=O)O)CCN(CC(=O)O)CC2)C(N)=O)NC(=O)[C@H](CC(=O)O)NC(=O)[C@H](Cc2cnc[nH]2)NC(=O)[C@H](Cc2ccc3ccccc3c2)NC(=O)[C@H](CC(N)=O)NC(=O)[C@H](CC(N)=O)NC1=O [compound 256, Ac-W-T-I-C(3)(pDBX)-N-N-(2Nal)-H-D-C(2)-W-P-[D-Lys(DOTA)]-NH2] (Ac-WTICNN[2Nal]HDCWP[dK](DOTA)-NH2; linker 4-10 via pXylylene)	1 to 10	
CC(=O)N[C@@H](Cc1c[nH]c2ccc(F)cc12)C(=O)N[C@H](C(=O)N[C@H](C(=O)N[C@H]1CSSC[C@@H](C(=O)N[C@@H](Cc2c[nH]c3ncccc23)C(=O)N2C[C@H](F)C[C@H]2C(=O)N[C@H](CCCCNC(=O)CN2CCN(CC(=O)O)CCN(CC(=O)O)CCN(CC(=O)O)CC2)C(N)=O)NC(=O)[C@H](CC(=O)O)NC(=O)[C@H](Cc2cnc[nH]2)NC(=O)[C@H](Cc2ccc3ccccc3c2)NC(=O)[C@H](CC(N)=O)NC(=O)[C@H](CC(N)=O)NC1=O)C(C)(C)C)[C@@H](C)O [compound 257, Ac-(5Fluoro-W)-T-(Tbg)-C(3)-N-N-(2Nal)-H-D-C(3)-(7Aza-W)-(trans4Fluoro-P)-[D-Lys(DOTA)]-NH2] (Ac-[Trp(5-F)]T[Tle]CNN[2Nal]HDC[Trp(7-aza)][Pro(trans-4-F)][dK](DOTA)-NH2; disulfide 4-10)	< 1	
CC(=O)N[C@@H](Cc1c[nH]c2ccc(F)cc12)C(=O)N[C@H](C(=O)N[C@H](C(=O)N[C@H]1CSSC[C@@H](C(=O)N[C@@H](Cc2c[nH]c3ncccc23)C(=O)N2C[C@H](F)C[C@H]2C(=O)N[C@H](CCCCNC(=O)CN2CCN(CC(=O)O)CCN(CC(=O)O)CCN(CC(=O)O)CC2)C(N)=O)NC(=O)[C@H](CC(=O)O)NC(=O)[C@H](Cc2cnc[nH]2)NC(=O)[C@H](Cc2ccc3ccccc3c2)NC(=O)[C@H](CC(N)=O)NC(=O)[C@H](CC(N)=O)NC1=O)C1CCCCC1)[C@@H](C)O [compound 258, Ac-(5Fluoro-W)-T-(Chg)-C(3)-N-N-(2Nal)-H-D-C(3)-(7Aza-W)-(trans4Fluoro-P)-[D-Lys(DOTA)]-NH2] (Ac-[Trp(5-F)]T[Chg]CNN[2Nal]HDC[Trp(7-aza)][Pro(trans-4-F)][dK](DOTA)-NH2; disulfide 4-10)	< 1	
CC[C@H](C)[C@H](NC(=O)[C@@H](NC(=O)[C@H](Cc1c[nH]c2ccccc12)NC(C)=O)[C@@H](C)O)C(=O)N[C@H]1CSSC[C@@H](C(=O)N[C@@H](Cc2c[nH]c3ccccc23)C(=O)N2CCC[C@H]2C(=O)N[C@H](CCCCNC(=O)CN2CCN(CC(=O)O)CCN(CC(=O)O)CCN(CC(=O)O)CC2)C(=O)O)NC(=O)[C@H](CC(=O)O)NC(=O)[C@H](Cc2cnc[nH]2)NC(=O)[C@H](Cc2ccc3ccccc3c2)NC(=O)[C@H](CC(N)=O)NC(=O)[C@H](CC(N)=O)NC1=O [compound 262, Ac-W-T-I-C(3)-N-N-(2Nal)-H-D-C(3)-W-P-[D-Lys(DOTA)]-OH] (Ac-WTICNN[2Nal]HDCWP[dK](DOTA)-OH; disulfide 4-10)	< 1	
CC(=O)N[C@@H](Cc1c[nH]c2ccc(F)cc12)C(=O)N[C@H](C(=O)N[C@@H](CC1CCC1)C(=O)N[C@H]1CSSC[C@@H](C(=O)N[C@@H](Cc2c[nH]c3ncccc23)C(=O)N2C[C@H](F)C[C@H]2C(=O)N[C@@H](CCCCNC(=O)CN2CCN(CC(=O)O)CCN(CC(=O)O)CCN(CC(=O)O)CC2)C(N)=O)NC(=O)[C@H](CC(=O)O)NC(=O)[C@H](Cc2cnc[nH]2)NC(=O)[C@H](Cc2ccc3ccccc3c2)NC(=O)[C@H](CC(N)=O)NC(=O)[C@H](CC(N)=O)NC1=O)[C@@H](C)O [compound 269, Ac-(5Fluoro-W)-T-(CBA)-C(3)-N-N-(2Nal)-H-D-C(3)-(7Aza-W)-(trans4Fluoro-P)-[D-Lys(DOTA)]-NH2] (Ac-[Trp(5-F)]T[Cba]CNN[2Nal]HDC[Trp(7-aza)][Pro(trans-4-F)]K(DOTA)-NH2; disulfide 4-10)	< 1	
